25 compounds from patent publication US12509444B2, “Compounds and methods for CD73 modulation and indications therefor” (Plexxikon Inc., priority 2019, dated 2025) can be followed below.

Molecules are shown by their SMILES.

The target of one test is T1, human CD73 (Homo sapiens, UniProt P21589).
T1 construct: expressed in transfected cells
T1 sequence (P21589 27-549): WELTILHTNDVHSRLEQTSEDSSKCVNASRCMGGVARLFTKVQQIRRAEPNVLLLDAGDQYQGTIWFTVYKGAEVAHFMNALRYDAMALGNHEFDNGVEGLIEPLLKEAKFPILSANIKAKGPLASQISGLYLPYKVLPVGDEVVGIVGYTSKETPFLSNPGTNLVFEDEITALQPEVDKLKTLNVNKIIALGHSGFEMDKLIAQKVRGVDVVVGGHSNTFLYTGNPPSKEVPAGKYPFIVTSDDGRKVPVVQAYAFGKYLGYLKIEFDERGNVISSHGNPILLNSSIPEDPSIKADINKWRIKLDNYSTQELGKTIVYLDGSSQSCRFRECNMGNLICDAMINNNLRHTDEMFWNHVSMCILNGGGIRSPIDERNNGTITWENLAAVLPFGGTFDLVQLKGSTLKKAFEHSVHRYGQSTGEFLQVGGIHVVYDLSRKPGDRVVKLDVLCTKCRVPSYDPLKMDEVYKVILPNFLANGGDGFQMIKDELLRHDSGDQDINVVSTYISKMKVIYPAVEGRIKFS
As to the kind of experiment: Inhibitor activity against CD73 in cell based assay (CD73 expressing CHO-K1 cells). Conditions: CHO-K1 cells expressing human CD73, 150 μM AMP, 4 hours of incubation; read-out: CHO-K1 CELL VARIANT: CD73 IC50. The essentials:
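Residual supernatant AMP was quantified via CellTiter-Glo luminescence (1 μM ATP added, 30 min, room temperature) after a 4 h exposure of human CD73-expressing CHO-K1 cells to 150 μM AMP plus compound, top final 10 μM, 8 points. IC50 came from nonlinear regression of percent inhibition.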

In test [1] the target is T2, Human CD73 (amino acid residues 27-549) (Homo sapiens, UniProt P21589).
T2 construct: Human CD73 (amino acid residues 27-549); His tag (N); made in house; host or cells: E. coli
T2 sequence (P21589 27-549): T1 sequence (P21589 27-549)
The experiment in a line: CD73 enzymatic assay (luciferase-based indirect assay, CellTiter-Glo). It counts as biochemical. As to conditions: 0.4 nM CD73, 150 μM AMP, 1 hour at room temperature. A digest of the protocol: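 Residual AMP inhibits luciferase, so luminescence reports CD73 turnover; read with CellTiter-Glo 2.0 plus 1 μM final ATP, 30 min. Reaction used 0.4 nM N-His CD73 (27-549, E. coli), 150 μM AMP, HEPES pH 7.4 with Tween 20, 1 h at room temperature. IC50 fitted by nonlinear regression.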
On the technique in general: Cellular ATP, detected with luciferase, serves as a proxy for viable cell number.

As usually defined, the IC50 is the concentration needed to halve the response being measured. `Cn1cc(C2(NC(=O)O[C@@H]3CCN(c4cn[nH]c(=O)c4Cl)C3)CC2)cn1` [P-0137, (R)-1-(5-chloro-6-oxo-1,6-dihydropyridazin-4-yl)pyrrolidin-3-yl (1-(1-methyl-1H-pyrazol-4-yl)cyclopropyl)carbamate]: the IC50 (at human CD73; in test [1]) was 0.001 to 10 µM in each case.
As to `CC1(OC(=O)NC2CCC(F)(F)CC2)CCN(c2cn[nH]c(=O)c2Cl)C1` (centres unmarked) [P-0138, 1-(5-chloro-6-oxo-1,6-dihydropyridazin-4-yl)-3-methylpyrrolidin-3-yl (4,4-difluorocyclohexyl)carbamate], the IC50 (on human CD73; in test [1]) was 0.001 to 10 µM each time.
For the compound `C[C@H]1CN(c2cn[nH]c(=O)c2Cl)C[C@@H]1OC(=O)NC1CCC(F)(F)CC1` [P-0139, (3R,4S)-1-(5-chloro-6-oxo-1,6-dihydropyridazin-4-yl)-4-methylpyrrolidin-3-yl (4,4-difluorocyclohexyl)carbamate], the IC50 (at human CD73; in test [1]) was 0.001 to 10 µM throughout.
Turning to `C[C@@H]1CN(c2cn[nH]c(=O)c2Cl)C[C@@H]1OC(=O)NC1CCC(F)(F)CC1` [P-0140, (3R,4R)-1-(5-chloro-6-oxo-1,6-dihydropyridazin-4-yl)-4-methylpyrrolidin-3-yl (4,4-difluorocyclohexyl)carbamate], the IC50 on human CD73 is 10 to 100 µM; in test [1], 0.001 to 10 µM.
The matching figures for `O=C(NC1CCC(F)(F)CC1)O[C@@H]1CN(c2cn[nH]c(=O)c2Cl)C[C@H]1F` [P-0141, (3R,4R)-1-(5-chloro-6-oxo-1,6-dihydropyridazin-4-yl)-4-fluoropyrrolidin-3-yl (4,4-difluorocyclohexyl)carbamate]: 0.001 to 10 µM and 0.001 to 10 µM.
As to `CCCS(=O)(=O)N[C@H]1CC[C@H](NC(=O)O[C@@H]2CCN(c3cn[nH]c(=O)c3Cl)C2)CC1` [P-0142, (R)-1-(5-chloro-6-oxo-1,6-dihydropyridazin-4-yl)pyrrolidin-3-yl ((1r,4R)-4-(propylsulfonamido)cyclohexyl)carbamate], the IC50 (at human CD73; in test [1]) was 0.001 to 10 µM each time.
`O=C(NC1CCC(C(F)(F)F)CC1)O[C@@H]1CCN(c2cn[nH]c(=O)c2Cl)C1` (stereo partly drawn) [P-0143, (R)-1-(5-chloro-6-oxo-1,6-dihydropyridazin-4-yl)pyrrolidin-3-yl (4-(trifluoromethyl)cyclohexyl) carbamate]: the IC50 (at human CD73; in test [1]) was 0.001 to 10 µM throughout.
Turning to `CS(=O)(=O)N[C@H]1CC[C@H](NC(=O)O[C@@H]2CCN(c3cn[nH]c(=O)c3C#N)C2)CC1` [P-0144, (R)-1-(5-cyano-6-oxo-1,6-dihydropyridazin-4-yl)pyrrolidin-3-yl ((1r,4R)-4-(methylsulfonamido)cyclohexyl)carbamate], the IC50 (on human CD73; in test [1]) was 0.001 to 10 µM in each case.
For the compound `N#Cc1c(N2CC[C@@H](OC(=O)NC3CCC(F)(F)CC3)C2)cn[nH]c1=O` [P-0145, (R)-1-(5-cyano-6-oxo-1,6-dihydropyridazin-4-yl)pyrrolidin-3-yl (4,4-difluorocyclohexyl)carbamate], the IC50 (on human CD73; in test [1]) was 0.001 to 10 µM throughout.
Take `O=C(NC1CCN(C(=O)NC2CC2)CC1)O[C@@H]1CCN(c2cn[nH]c(=O)c2Cl)C1` [P-0146, (R)-1-(5-chloro-6-oxo-1,6-dihydropyridazin-4-yl)pyrrolidin-3-yl (1-(cyclopropylcarbamoyl)piperidin-4-yl)carbamate]: the IC50 (at human CD73; in test [1]) was 0.001 to 10 µM each time.
With `O=C(NC1CCN(C(=O)NC2CCCCC2)CC1)O[C@@H]1CCN(c2cn[nH]c(=O)c2Cl)C1` [P-0147, (R)-1-(5-chloro-6-oxo-1,6-dihydropyridazin-4-yl)pyrrolidin-3-yl (1-(cyclohexylcarbamoyl)piperidin-4-yl)carbamate], the IC50 (at human CD73; in test [1]) was 0.001 to 10 µM throughout.
Take `O=C(NC1CCN(C(=O)Nc2ccc(F)cc2)CC1)O[C@@H]1CCN(c2cn[nH]c(=O)c2Cl)C1` [P-0148, (R)-1-(5-chloro-6-oxo-1,6-dihydropyridazin-4-yl)pyrrolidin-3-yl (1-((4-fluorophenyl)carbamoyl)piperidin-4-yl)carbamate]: the IC50 (at human CD73; in test [1]) was 0.001 to 10 µM each time.
As to `NC(=O)N1CCC(NC(=O)O[C@@H]2CCN(c3cn[nH]c(=O)c3Cl)C2)CC1` [P-0149, (R)-1-(5-chloro-6-oxo-1,6-dihydropyridazin-4-yl)pyrrolidin-3-yl (1-carbamoylpiperidin-4-yl)carbamate], the IC50 (on human CD73; in test [1]) was 0.001 to 10 µM each time.
Take `CS(=O)(=O)N1CCC(NC(=O)O[C@@H]2CCN(c3cn[nH]c(=O)c3Cl)C2)CC1` [P-0150, (R)-1-(5-chloro-6-oxo-1,6-dihydropyridazin-4-yl)pyrrolidin-3-yl (1-(methylsulfonyl)piperidin-4-yl)carbamate]: the IC50 (at human CD73; in test [1]) was 0.001 to 10 µM each time.
Consider `N#Cc1c(N2CC[C@@H](OC(=O)NC3CCN(C4CCCC4)CC3)C2)cn[nH]c1=O` [P-0151, (R)-1-(5-cyano-6-oxo-1,6-dihydropyridazin-4-yl)pyrrolidin-3-yl (1-cyclopentylpiperidin-4-yl)carbamate], for which the IC50 (at human CD73; in test [1]) was 0.001 to 10 µM in each case.
As to `O=C(N[C@H]1CC[C@H](NS(=O)(=O)C2CC2)CC1)O[C@@H]1CCN(c2cn[nH]c(=O)c2Cl)C1` [P-0152, (R)-1-(5-chloro-6-oxo-1,6-dihydropyridazin-4-yl)pyrrolidin-3-yl ((1r,4R)-4-(cyclopropanesulfonamido)cyclohexyl)carbamate], the IC50 (on human CD73; in test [1]) was 0.001 to 10 µM each time.
With `O=C(N[C@H]1CC[C@H](NS(=O)(=O)NC2CCCC2)CC1)O[C@@H]1CCN(c2cn[nH]c(=O)c2Cl)C1` [P-0153, (R)-1-(5-chloro-6-oxo-1,6-dihydropyridazin-4-yl)pyrrolidin-3-yl ((1r,4R)-4-((N-cyclopentylsulfamoyl)amino)cyclohexyl)carbamate], the IC50 (on human CD73; in test [1]) was 0.001 to 10 µM each time.
Consider `Cc1c(N2CC[C@@H](OC(=O)NC3CCC(F)(F)C3)C2)cn[nH]c1=O` (stereo partly drawn) [P-0154, (R)-1-(5-methyl-6-oxo-1,6-dihydropyridazin-4-yl)pyrrolidin-3-yl (3,3-difluorocyclopentyl)carbamate], for which the IC50 (on human CD73; in test [1]) was 0.001 to 10 µM each time.
For `Cn1ncc(N2CC[C@@H](OC(=O)NC3CCCC3)C2)c(Cl)c1=O` [P-0155, (R)-1-(5-chloro-1-methyl-6-oxo-1,6-dihydropyridazin-4-yl)pyrrolidin-3-yl cyclopentylcarbamate], the IC50 (on human CD73; in test [1]) was 0.001 to 10 µM in each case.
For the compound `NC(=O)N[C@H]1CC[C@H](NC(=O)O[C@@H]2CCN(c3cn[nH]c(=O)c3Cl)C2)CC1` [P-0156, (R)-1-(5-chloro-6-oxo-1,6-dihydropyridazin-4-yl)pyrrolidin-3-yl ((1r,4R)-4-ureidocyclohexyl)carbamate], the IC50 (at human CD73; in test [1]) was 0.001 to 10 µM in each case.
With `O=CN[C@H]1CC[C@H](NC(=O)O[C@@H]2CCN(c3cn[nH]c(=O)c3Cl)C2)CC1` [P-0157, (R)-1-(5-chloro-6-oxo-1,6-dihydropyridazin-4-yl)pyrrolidin-3-yl ((1r,4R)-4-formamidocyclohexyl) carbamate], the IC50 (on human CD73; in test [1]) was 0.001 to 10 µM each time.
As to `O=C(N[C@H]1CC[C@H](NS(=O)(=O)c2ccccc2)CC1)O[C@@H]1CCN(c2cn[nH]c(=O)c2Cl)C1` [P-0158, (R)-1-(5-chloro-6-oxo-1,6-dihydropyridazin-4-yl)pyrrolidin-3-yl ((1r,4R)-4-(phenylsulfonamido)cyclohexyl)carbamate], the IC50 (on human CD73; in test [1]) was 0.001 to 10 µM in each case.
Consider `NCC(=O)N1CCC(NC(=O)O[C@@H]2CCN(c3cn[nH]c(=O)c3Cl)C2)CC1` [P-0159, (R)-1-(5-chloro-6-oxo-1,6-dihydropyridazin-4-yl)pyrrolidin-3-yl (1-glycylpiperidin-4-yl)carbamate], for which the IC50 (on human CD73; in test [1]) was 0.001 to 10 µM each time.
As to `CC(C)(C)OC(=O)NCC(=O)N1CCC(NC(=O)O[C@@H]2CCN(c3cn[nH]c(=O)c3Cl)C2)CC1` [P-0160, (R)-1-(5-chloro-6-oxo-1,6-dihydropyridazin-4-yl)pyrrolidin-3-yl (1-((tert-butoxycarbonyl)glycyl)piperidin-4-yl)carbamate], the IC50 (at human CD73; in test [1]) was 0.001 to 10 µM in each case.
Consider `CC(=O)NCC(=O)N1CCC(NC(=O)O[C@@H]2CCN(c3cn[nH]c(=O)c3Cl)C2)CC1` [P-0161, (R)-1-(5-chloro-6-oxo-1,6-dihydropyridazin-4-yl)pyrrolidin-3-yl (1-(acetylglycyl)piperidin-4-yl)carbamate], for which the IC50 (on human CD73; in test [1]) was 0.001 to 10 µM in each case.
